Legend:
MT1 receptor = MT1 receptor (Homo sapiens, UniProt P48039); assay: Melatonin MT1 receptor binding study (2-[125I]-iodomelatonin competition); details: 2-[125I]-iodomelatonin radioligand, triplicate
Procedure: (§1) The MT1 or MT2 receptor binding experiments are carried out using 2-[^125I]-iodomelatonin as reference radioligand. The radioactivity retained is determined using a liquid scintillation counter.
(§2) Competitive binding experiments are then carried out in triplicate using the various test compounds. A range of different concentrations is tested for each compound. The results enable the binding affinities (Ki) of the compounds tested to be determined.

MT2 receptor = target: T1, MT2 receptor (Homo sapiens, UniProt P49286); assay: Melatonin MT2 receptor binding study (2-[125I]-iodomelatonin competition); details: 2-[125I]-iodomelatonin radioligand, triplicate
T1 sequence (P49286 1-362): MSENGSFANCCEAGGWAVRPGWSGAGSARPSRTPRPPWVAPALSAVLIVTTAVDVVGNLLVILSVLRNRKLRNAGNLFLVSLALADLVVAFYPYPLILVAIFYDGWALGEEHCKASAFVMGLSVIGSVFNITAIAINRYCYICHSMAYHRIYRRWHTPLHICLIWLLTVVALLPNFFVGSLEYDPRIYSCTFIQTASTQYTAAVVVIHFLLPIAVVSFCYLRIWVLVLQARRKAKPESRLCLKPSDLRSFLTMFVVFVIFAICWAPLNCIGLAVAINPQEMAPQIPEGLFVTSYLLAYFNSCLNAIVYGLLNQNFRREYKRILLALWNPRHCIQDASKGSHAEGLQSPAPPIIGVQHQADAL
Procedure: as §1, §2

Chain of MT1 receptor (P48039 whole entry): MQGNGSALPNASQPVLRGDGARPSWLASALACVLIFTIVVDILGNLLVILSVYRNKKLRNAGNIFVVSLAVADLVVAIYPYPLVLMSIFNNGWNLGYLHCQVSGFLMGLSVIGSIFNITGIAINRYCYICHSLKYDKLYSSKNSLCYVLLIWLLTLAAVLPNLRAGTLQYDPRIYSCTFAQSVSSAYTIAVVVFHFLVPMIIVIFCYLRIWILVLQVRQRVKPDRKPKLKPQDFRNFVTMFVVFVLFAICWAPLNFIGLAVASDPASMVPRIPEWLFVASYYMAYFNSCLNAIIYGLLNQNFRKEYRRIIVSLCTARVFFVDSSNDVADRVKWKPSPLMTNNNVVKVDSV

`CNC(=O)c1cc2ccc(OC)cc2n1CCNC(C)=O` [Example 1, 1-[2-(Acetylamino)ethyl]-6-methoxy-N-methyl-1H-indole-2-carboxamide] gave a Ki (MT1 receptor) of 18 nM and a Ki (MT2 receptor) of 1 nM.

Reference: patent publication US8003682B2, “Indole compounds, a process for their preparation and pharmaceutical compositions containing them” (Les Laboratories Servier, priority 2006, dated 2011)
